Reference: patent publication US7378121B2, “Use of ferulic acid amides as flavor compounds” (Symrise GmbH & Co. KG, priority 2001, dated 2008)

Experiments:
[1] = system: mouse; conditions: cited from earlier work
[2] = with frequent use and overdose; cited from earlier work
[3] = Tasting of the pungent compounds in 11% strength by weight sugar solution (Example 1); format: in vivo, human; conditions: approx. 5 ml swallowed, 8 testers
Procedure: The substance, under test, was dissolved in ethanol and the ethanolic solution was then diluted with an 11% strength by weight sugar solution (final concentration: c). For tasting, in each case approximately 5 ml of the sugar solution was swallowed. If the threshold value of the substance was known, a value just above the threshold value is chosen for the tasting. A group of 8 testers tasted the solutions.

[4] = in vivo; cited from earlier work
[5] = Gelled fruits having elderberry flavor, flavor intensifier test; format: in vivo, human; conditions: elderberry flavor 0.07% by weight
Excerpt: As commercially conventional model system, flavor combinations in gelled fruits having elderberry flavor were used: […]

[6] = Test of the combined action of grains of paradise extract and trans-feruloylmethoxytyramine in model system A; format: in vivo, human; conditions: 0.02% by weight solution (10% by weight EtOH) in model system A
Procedure: (§1) The grains of paradise extract used below was prepared by stirring 800 g of ground grains of paradise with 4 kg of ethanol (96% by volume). After filtration the filtrate was concentrated to 40 g and treated with steam at 100° C. and 300 mbar. The extract was made up to 80 g with ethanol (96% by volume).
(§2) As commercially conventional model systems, a liqueur base of 10% by volume and a liqueur base of 5.5% by volume were selected.
Then, to model system A the solution of a grains of paradise extract (10% by weight in ethanol) was added at concentrations of 0.1 to 0.2% by weight, based on the total weight of the model system, and a solution of trans-feruloylmethoxytyramine (10% by weight in ethanol) at a concentration of 0.01 to 0.02% by weight, based on the total weight of the model system. Using a taste-testing group of 8 people, again the effect of grains of paradise extract addition and of trans-feruloylmethoxytyramine addition on the sensory profile were tested. In addition, the combined action was tested.

[7] = Sensory assessment of the pungency of liqueur base model system A (10% by volume) with additions; format: in vivo, human; conditions: 1% by weight of solution (1% by weight in EtOH) added to model system A
Procedure: as §1, §2
To the model system A were then added the solution of the extract of grains of paradise (1% by weight in ethanol (EtOH)) at concentrations of 1 to 3% by weight, based on the total weight of the model system, and a solution of trans-feruloylmethoxytyramine (1% by weight in ethanol) at a concentration of 1% by weight, based on the total weight of the model system. Using a taste-testing group of 8 people, the effect of grains of paradise extract addition and trans-feruloylmethoxytyramine addition on the sensory profile were then tested. The sensory assessment was made on a scale of 1 (weak) to 5 (strong).

COc1cc(CNC(=O)CCCC/C=C/C(C)C)ccc1O [capsaicin, N-(4-hydroxy-3-methoxybenzyl)-8-methyl-(6E)-nonenamide]
LD50 (mouse oral) [1]: 47 mg
Chronic damage [2]: chronic gastritis, kidney damage and liver damage

COc1cc(/C=C\C(=O)NCCc2ccc(O)c(OC)c2)ccc1O [cis-feruloylmethoxytyramine, N-[2-(4-hydroxy-3-methoxyphenyl)ethyl]-3-(4-hydroxy-3-methoxyphenyl)-(2Z)-propenamide]
Sensory profile ([3]; c=1 ppm in 11% sugar solution): pungency builds up slowly

COc1cc(/C=C/C(=O)NCc2ccc(O)c(OC)c2)ccc1O [ferulic acid N-vanillylamide, N-(4-hydroxy-3-methoxybenzyl)-4-hydroxy-3-methoxy-(2E)-propenamide]
Pungency as described in the literature [4]: not described as pungent

O=C(/C=C/c1ccc(O)c(O)c1)NCCc1ccc(O)cc1 [trans-caffeoyltyramine, N-[2-(4-hydroxyphenyl)ethyl]-3-(3,4-dihydroxyphenyl)-(2E)-propenamide]
Sensory profile ([3]; c=1 ppm in 11% sugar solution): pungency occurs after a delay, anaesthetizing pungency

COc1cc(/C=C/C(=O)NCCc2ccc(O)c(OC)c2)ccc1O [trans-feruloylmethoxytyramine, N-[2-(4-hydroxy-3-methoxyphenyl)ethyl]-3-(4-hydroxy-3-methoxyphenyl)-(2E)-propenamide]
Sensory profile ([3]; c=10 ppm in 11% sugar solution): body, sweet, heat develops after delay, long-lasting, especially in the pharyngeal cavity (in the case of 4 participants), adherent, slightly anaesthetizing action
Sensory profile ([3]; c=20 ppm in 11% sugar solution): sweet, aniseed-like, benzaldehyde, heat develops after a delay (in the case of 8 participants), long-lasting, especially in the pharyngeal cavity, pleasant pepper pungency
Sensory description ([5]; 0.015% by weight of solution (1% by weight in ethanol)): Effect only slightly perceptible
Sensory description ([5]; 0.03% by weight of solution (1% by weight in ethanol)): Effect below threshold, but pleasant
Sensory description ([5]; 0.045% by weight of solution (1% by weight in ethanol)): Flavor fresh and rounded
Comments (sensory) [6]: Mild, pungency very similar
Sensory description [7]: Sweet, vanilla, fruity, less
Pungency (median), Scale 1-5 ([7]; scale 1 (weak) to 5 (strong), 8 people): 2

COc1ccc(/C=C/C(=O)NCCc2ccc(OC)c(OC)c2)cc1OC [trans-rubenamine, N-[2-(3,4-dimethoxyphenyl)ethyl]-3-(3,4-dimethoxyphenyl)-(2E)-propenamide]
Sensory profile ([3]; c=1 ppm in 11% sugar solution): pleasant mild pungency, builds up slowly
